Experimental data reported in patent US20140369933A1, “FLUORINE-18 LABELED HYDROGEN ION PROBES” (The Trustees of The University of Pennsylvania, priority 2011, published 2014).
Read-outs that look alike come from different tables or passages of the source.

Key:
[1] = pKa of the indicators by UV-VIS spectroscopy from pH dependence of absorption of basic forms
Protocol: (§1) The values of pKa of the indicators were determined by UV-VIS spectroscopy from the pH dependence of absorption of their basic forms and other spectroscopic investigations of the products were performed by Beckman-Coulter DU 530 spectrophotometer using acetate, phosphate, TRIZMA, and borate buffers for different values of pH. The number of fluorine atoms in the molecule was also determined by comparison of the ratio of sample activity to absorption of the basic forms of indicators.

[2] = UV-VIS absorption maxima of indicator forms; format: physicochemical; conditions: for absorption maximum of basic form: basic form of indicator; for absorption maximum of acidic form: acidic form of indicator
Protocol: as §1

[3] = parental compound, intravenous injection, renal excretion; cited from earlier work
[4] = UV-VIS, pH dependence of absorption of basic form, acetate, phosphate, TRIZMA, borate buffers

Molecule `Cc1cc(O)ccc1C1(c2ccc(O)cc2C)OS(=O)(=O)c2ccccc21` [CP, cresolsulfonphthalein, reference compound] has a pKa [1, 4] of 8.3.
For `Cc1cc(C2(c3ccc(O)c(C)c3)OS(=O)(=O)c3ccccc32)ccc1O` [Cresol Red, ortho-cresolsulfonphthalein, reference compound], the “absorption maximum of basic form” value [2] was 572 nm and the pKa [1, 4] was 8.2.
In the case of `Cc1cc(C2(c3cc(C)c(O)c([18F])c3)OS(=O)(=O)c3ccccc32)cc([18F])c1O` [DFCR, DiFluoroCresol Red], the “absorption maximum of basic form” value [2] is reported as 582 nm and the pKa [1] is reported as 6.8.
For `O=S1(=O)OC(c2ccc(O)c([18F])c2)(c2ccc(O)c([18F])c2)c2ccccc21` [DFPR, difluorophenol red], the “absorption maximum of acidic form” value [2] was 428 nm, the “absorption maximum of basic form” value [2] was 570 nm and the pKa [1] was 6.4.
With `Cc1c(C2(c3cc(C(C)C)c(O)c([18F])c3C)OS(=O)(=O)c3ccccc32)cc(C(C)C)c(O)c1[18F]` [DFTB, difluorothymolsulfonphthalein] the “absorption maximum of basic form” value [2] was 605 nm and the pKa [1] was 7.65.
With `Cc1cc(C2(c3cc(C)c(O)c([18F])c3)OS(=O)(=O)c3ccccc32)ccc1O` (stereo not drawn) [MFCR, MonoFluoroCresol Red] the “absorption maximum of basic form” value [2] was 576 nm and the pKa [1] was 7.6.
For `O=S1(=O)OC(c2ccc(O)cc2)(c2ccc(O)c([18F])c2)c2ccccc21` (stereo not drawn) [MFPR, monofluorophenol red], the “absorption maximum of acidic form” value [2] was 436 nm, the “absorption maximum of basic form” value [2] was 564 nm and the pKa [1] was 7.3.
For `Cc1cc(O)c(C(C)C)cc1C1(c2cc(C(C)C)c(O)c([18F])c2C)OS(=O)(=O)c2ccccc21` (stereo not drawn) [MFTB, MonoFluoro Thymol Blue], the “absorption maximum of basic form” value [2] was 599 nm and the pKa [1] was 8.25.
For `O=S1(=O)OC(c2ccc(O)cc2)(c2ccc(O)cc2)c2ccccc21` [Phenol Red, phenolsulfonphthalein, reference compound], the “absorption maximum of acidic form” value [2] was 433 nm, the “absorption maximum of basic form” value [2] was 558 nm and the pKa [1] was 7.9. The “half-life, mostly renal clearance” value [3] was 20 to 30 min.
In the case of `Cc1cc(O)c([18F])cc1C1(c2cc([18F])c(O)c([18F])c2C)OS(=O)(=O)c2ccccc21` (stereo not drawn) [TFCP, trifluorocresolsulfonphthalein], the “absorption maximum of basic form” value [2] is reported as 592 nm and the pKa [1] is reported as 6.4.
With `O=S1(=O)OC(c2ccc(O)c([18F])c2)(c2cc([18F])c(O)c([18F])c2)c2ccccc21` (stereo not drawn) [TFPR, trifluorophenol red] the “absorption maximum of basic form” value [2] was 572 nm and the pKa [1] was 5.9.
In the case of `Cc1cc(O)c(C(C)C)cc1C1(c2cc(C(C)C)c(O)cc2C)OS(=O)(=O)c2ccccc21` [Thymol Blue, thymolsulfonphthalein, reference compound], the “absorption maximum of basic form” value [2] is reported as 597 nm and the pKa [1, 4] is reported as 8.85.
In the case of `O=C1OC(c2cc([18F])c(O)c3ccccc23)(c2cc([18F])c(O)c3ccccc23)c2ccccc21` [difluoronaphtholphthalein], the “absorption maximum of basic form” value [2] is reported as 668 nm and the pKa [1] is reported as 7.2.
With `O=C1OC(c2ccc(O)c([18F])c2)(c2ccc(O)c([18F])c2)c2ccccc21` [difluorophenolphthalein] the “absorption maximum of basic form” value [2] was 564 nm and the pKa [1] was 8.7.
With `O=C1OC(c2ccc(O)cc2)(c2ccc(O)c([18F])c2)c2ccccc21` (stereo not drawn) [monofluorophenolphthalein] the “absorption maximum of basic form” value [2] was 558 nm and the pKa [1] was 9.3.
In the case of `O=C1OC(c2ccc(O)c3ccccc23)(c2ccc(O)c3ccccc23)c2ccccc21` [naphtholphthalein, reference compound], the “absorption maximum of basic form” value [2] is reported as 653 nm and the pKa [1] is reported as 7.95.
With `O=C1OC(c2ccc(O)cc2)(c2ccc(O)cc2)c2ccccc21` [phenolphthalein, reference compound] the “absorption maximum of basic form” value [2] was 553 nm and the pKa [1] was 9.75.
For difluorocresolsulfonphthalein [DFCP], the “absorption maximum of basic form” value [2] was 589 nm.
With monofluorocresolsulfonphthalein [MFCP] the “absorption maximum of basic form” value [2] was 582 nm.
In the case of monofluoronaphtholphthalein, the “absorption maximum of basic form” value [2] is reported as 660 nm and the pKa [1, 4] is reported as 7.7.
In the case of trifluorophenol red [TFPR], the “absorption maximum of basic form” value [2] is reported as 572 nm.
